Results from US11020399B2, “Intermediates useful in the synthesis of compounds as modulators of protein kinases” (Rhizen Pharmaceuticals SA, priority 2011, dated 2021).
Structures can show the parent of a compound that is named as a salt.

What was measured:
PI3kβ = PI3kβ (Homo sapiens, UniProt P42338); assay: Fluorescent (HTRF) determination of PI3 kinase enzyme activity, PI3Kβ; type: biochemical; details: 1 uM
Method in brief: (§1)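 Human PI3K isoforms were preincubated with compound for 10 min at room temperature in 10 mM MgCl2, 5 mM DTT, 1.38 μM PIP2, then reacted 30 min after adding 400 μM ATP stock. PIP3 was read by HTRF (665/620 nm). Percent inhibition used blank and enzyme controls; single-point testing was at 1 uM for α/β and 0.3 or 0.1 uM for γ/δ.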

PI3kγ = PI3kγ (Homo sapiens, UniProt P48736); assay: Fluorescent (HTRF) determination of PI3 kinase enzyme activity, PI3Kγ; type: biochemical; details: for inhibition at 0.3 µM: 300 nM (Examples 1-59); for inhibition at 0.1 µM / % inhibition (PI3kγ) 100 nM: 100 nM (Examples 60-137); for % inhibition (PI3kγ) 100 nM: 0.1 µM
Method in brief: as §1

PI3kδ = PI3kδ (Homo sapiens, UniProt O00329); assay: Fluorescent (HTRF) determination of PI3 kinase enzyme activity, PI3Kδ; type: biochemical; details: for inhibition at 0.3 µM: 300 nM (Examples 1-59)
Method in brief: as §1

PI3kα = PI3kα (Homo sapiens, UniProt P42336); assay: Fluorescent (HTRF) determination of PI3 kinase enzyme activity, PI3Kα; type: biochemical; details: 1 uM
Method in brief: as §1

PI3kγ, sequence (P48736 whole entry): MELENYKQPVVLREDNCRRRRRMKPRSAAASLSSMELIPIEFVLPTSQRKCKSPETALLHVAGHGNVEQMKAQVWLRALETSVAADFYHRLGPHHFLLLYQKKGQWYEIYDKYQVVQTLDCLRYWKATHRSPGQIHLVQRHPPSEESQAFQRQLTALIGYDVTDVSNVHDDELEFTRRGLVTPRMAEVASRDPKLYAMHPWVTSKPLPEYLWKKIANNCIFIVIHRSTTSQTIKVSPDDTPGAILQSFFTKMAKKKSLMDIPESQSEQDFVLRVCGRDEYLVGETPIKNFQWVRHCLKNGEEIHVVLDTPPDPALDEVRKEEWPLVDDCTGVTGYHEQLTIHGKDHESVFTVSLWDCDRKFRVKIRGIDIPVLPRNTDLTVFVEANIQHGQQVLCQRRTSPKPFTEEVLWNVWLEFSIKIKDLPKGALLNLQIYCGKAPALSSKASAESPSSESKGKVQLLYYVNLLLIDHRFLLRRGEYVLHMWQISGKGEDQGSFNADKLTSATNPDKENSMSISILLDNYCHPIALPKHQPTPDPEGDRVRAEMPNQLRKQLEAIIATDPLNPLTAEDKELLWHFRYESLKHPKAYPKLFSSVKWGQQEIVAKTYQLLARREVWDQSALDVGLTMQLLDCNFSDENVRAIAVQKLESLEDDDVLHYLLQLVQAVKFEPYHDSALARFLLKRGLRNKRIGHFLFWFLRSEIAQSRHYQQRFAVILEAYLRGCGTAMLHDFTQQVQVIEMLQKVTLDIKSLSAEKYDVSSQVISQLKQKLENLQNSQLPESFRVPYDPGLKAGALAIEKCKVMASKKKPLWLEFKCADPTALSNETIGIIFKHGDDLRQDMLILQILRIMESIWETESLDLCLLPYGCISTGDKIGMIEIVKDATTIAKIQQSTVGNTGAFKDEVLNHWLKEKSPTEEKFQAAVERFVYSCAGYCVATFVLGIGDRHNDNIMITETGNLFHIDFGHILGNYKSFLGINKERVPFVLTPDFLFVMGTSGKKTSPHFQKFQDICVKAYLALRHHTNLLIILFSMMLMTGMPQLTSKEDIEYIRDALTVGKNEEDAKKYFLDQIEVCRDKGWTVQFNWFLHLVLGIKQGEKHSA
PI3kδ, sequence (O00329 whole entry): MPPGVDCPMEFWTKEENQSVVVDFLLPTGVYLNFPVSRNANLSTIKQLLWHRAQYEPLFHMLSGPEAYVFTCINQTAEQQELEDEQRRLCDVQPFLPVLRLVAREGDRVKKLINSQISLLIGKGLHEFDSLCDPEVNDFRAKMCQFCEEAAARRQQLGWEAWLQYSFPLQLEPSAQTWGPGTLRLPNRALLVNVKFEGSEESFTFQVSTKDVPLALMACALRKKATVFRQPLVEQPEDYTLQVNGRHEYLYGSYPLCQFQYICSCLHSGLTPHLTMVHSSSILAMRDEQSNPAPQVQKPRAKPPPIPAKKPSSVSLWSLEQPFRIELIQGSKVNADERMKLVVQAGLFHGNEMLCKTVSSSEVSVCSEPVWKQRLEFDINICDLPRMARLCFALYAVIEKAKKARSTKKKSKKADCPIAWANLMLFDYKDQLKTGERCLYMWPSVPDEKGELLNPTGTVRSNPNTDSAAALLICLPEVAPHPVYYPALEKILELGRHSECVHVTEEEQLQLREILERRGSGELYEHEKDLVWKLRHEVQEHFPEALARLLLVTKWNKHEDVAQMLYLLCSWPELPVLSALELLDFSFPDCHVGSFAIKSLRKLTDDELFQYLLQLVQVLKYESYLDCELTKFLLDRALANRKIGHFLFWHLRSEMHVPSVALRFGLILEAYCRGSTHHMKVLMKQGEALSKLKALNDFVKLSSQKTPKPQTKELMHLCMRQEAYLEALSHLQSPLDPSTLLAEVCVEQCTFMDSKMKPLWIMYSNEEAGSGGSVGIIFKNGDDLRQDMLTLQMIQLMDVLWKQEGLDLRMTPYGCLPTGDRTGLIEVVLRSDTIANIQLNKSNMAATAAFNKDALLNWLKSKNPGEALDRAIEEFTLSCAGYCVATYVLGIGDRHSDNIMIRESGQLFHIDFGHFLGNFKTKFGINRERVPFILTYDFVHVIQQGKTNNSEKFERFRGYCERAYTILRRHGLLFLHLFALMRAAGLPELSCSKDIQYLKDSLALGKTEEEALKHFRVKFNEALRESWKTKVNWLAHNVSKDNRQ
PI3kδ, sequence (P27986 whole entry partner): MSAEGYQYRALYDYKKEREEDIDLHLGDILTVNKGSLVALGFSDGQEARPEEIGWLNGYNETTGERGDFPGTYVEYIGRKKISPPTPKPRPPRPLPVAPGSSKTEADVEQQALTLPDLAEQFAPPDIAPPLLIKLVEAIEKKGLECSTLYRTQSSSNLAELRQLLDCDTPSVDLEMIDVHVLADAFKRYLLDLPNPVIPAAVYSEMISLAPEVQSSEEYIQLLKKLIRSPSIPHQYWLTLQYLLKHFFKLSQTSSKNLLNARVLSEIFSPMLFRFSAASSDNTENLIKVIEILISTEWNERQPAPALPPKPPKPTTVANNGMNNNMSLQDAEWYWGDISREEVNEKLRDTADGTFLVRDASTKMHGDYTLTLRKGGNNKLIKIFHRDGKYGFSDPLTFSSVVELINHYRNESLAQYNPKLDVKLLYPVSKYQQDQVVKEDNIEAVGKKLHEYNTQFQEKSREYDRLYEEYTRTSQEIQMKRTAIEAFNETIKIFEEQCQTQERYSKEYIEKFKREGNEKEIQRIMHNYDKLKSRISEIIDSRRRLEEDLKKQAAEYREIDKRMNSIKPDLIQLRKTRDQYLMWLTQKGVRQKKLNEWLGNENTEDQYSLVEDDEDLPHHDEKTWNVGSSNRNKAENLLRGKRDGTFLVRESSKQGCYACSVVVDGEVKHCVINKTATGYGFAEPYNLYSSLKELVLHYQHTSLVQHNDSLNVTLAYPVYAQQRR
PI3kα, sequence (P42336 whole entry): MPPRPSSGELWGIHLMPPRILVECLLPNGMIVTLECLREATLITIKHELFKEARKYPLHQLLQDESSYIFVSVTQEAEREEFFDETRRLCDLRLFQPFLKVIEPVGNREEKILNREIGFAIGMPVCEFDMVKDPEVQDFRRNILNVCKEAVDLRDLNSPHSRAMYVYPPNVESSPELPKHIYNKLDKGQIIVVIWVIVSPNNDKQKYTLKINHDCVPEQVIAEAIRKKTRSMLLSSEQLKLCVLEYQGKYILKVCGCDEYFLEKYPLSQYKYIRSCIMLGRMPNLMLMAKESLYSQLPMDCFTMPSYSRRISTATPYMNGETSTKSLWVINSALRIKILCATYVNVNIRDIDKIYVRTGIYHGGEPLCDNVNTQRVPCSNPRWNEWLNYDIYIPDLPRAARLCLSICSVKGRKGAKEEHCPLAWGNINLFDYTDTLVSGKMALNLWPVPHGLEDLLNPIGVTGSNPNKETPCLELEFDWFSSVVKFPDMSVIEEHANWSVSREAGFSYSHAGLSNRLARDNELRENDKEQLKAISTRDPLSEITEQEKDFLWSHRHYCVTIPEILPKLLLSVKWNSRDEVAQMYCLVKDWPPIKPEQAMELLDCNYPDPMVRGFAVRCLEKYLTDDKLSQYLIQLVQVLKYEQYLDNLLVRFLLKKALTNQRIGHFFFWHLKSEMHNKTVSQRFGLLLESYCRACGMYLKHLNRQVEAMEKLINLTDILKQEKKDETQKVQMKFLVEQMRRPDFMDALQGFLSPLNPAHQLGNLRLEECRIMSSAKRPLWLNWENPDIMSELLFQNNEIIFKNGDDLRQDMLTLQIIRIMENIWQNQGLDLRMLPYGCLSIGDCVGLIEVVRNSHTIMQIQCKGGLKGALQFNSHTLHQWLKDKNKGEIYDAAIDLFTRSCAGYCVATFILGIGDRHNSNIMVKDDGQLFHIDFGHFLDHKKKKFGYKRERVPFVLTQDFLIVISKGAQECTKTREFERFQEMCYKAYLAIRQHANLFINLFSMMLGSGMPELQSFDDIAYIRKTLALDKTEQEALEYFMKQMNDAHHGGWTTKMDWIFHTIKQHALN
PI3kα, sequence (P27986 whole entry partner): as the sequence (P27986 whole entry partner) above
PI3kβ, sequence (P42338 whole entry, canonical isoform): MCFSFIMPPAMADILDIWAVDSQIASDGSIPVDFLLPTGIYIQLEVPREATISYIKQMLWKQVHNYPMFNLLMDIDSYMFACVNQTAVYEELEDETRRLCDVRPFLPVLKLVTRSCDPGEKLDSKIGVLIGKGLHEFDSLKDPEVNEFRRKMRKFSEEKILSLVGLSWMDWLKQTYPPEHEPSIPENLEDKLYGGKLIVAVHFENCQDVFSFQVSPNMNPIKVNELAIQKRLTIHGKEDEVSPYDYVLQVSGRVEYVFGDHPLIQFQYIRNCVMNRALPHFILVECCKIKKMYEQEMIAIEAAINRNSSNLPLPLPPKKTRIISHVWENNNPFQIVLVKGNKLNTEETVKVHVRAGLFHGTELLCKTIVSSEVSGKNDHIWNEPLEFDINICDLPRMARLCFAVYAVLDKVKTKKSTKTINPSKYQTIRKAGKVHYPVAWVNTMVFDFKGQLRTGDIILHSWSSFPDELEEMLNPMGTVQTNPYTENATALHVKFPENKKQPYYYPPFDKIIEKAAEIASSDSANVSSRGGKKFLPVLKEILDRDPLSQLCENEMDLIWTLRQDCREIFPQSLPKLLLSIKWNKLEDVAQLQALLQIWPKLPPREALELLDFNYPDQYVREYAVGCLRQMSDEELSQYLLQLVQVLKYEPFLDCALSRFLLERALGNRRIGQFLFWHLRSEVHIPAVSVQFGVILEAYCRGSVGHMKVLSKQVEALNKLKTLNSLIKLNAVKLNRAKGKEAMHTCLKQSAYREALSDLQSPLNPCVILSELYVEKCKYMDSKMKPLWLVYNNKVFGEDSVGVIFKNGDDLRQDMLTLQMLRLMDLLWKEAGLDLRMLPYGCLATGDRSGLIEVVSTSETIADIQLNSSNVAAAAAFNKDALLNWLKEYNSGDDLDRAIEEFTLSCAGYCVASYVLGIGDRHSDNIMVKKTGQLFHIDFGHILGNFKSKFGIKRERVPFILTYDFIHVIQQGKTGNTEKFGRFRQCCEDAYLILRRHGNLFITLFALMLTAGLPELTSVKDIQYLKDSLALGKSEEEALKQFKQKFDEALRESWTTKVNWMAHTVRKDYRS
PI3kβ, sequence (P27986 whole entry partner, canonical isoform): as the sequence (P27986 whole entry partner) above

inhibition at 1 µM (PI3kβ) [%] | inhibition at 0.3 µM (PI3kγ) [%] | inhibition at 0.3 µM (PI3kδ) [%] | inhibition at 1 µM (PI3kα) [%] | inhibition at 0.1 µM (PI3kδ; 100 nM (Examples 60-137)) [%] | Compound | also measured
25 to 50 |  |  | 0 to 25 | 0 to 25 | CC(c1oc2cccc(F)c2c(=O)c1-c1ccc(F)cc1)n1cnc2c(N)nc(F)nc21 (centres unmarked) [Example 107, 2-(1-(6-amino-2-fluoro-9H-purin-9-yl)ethyl)-5-fluoro-3-(4-fluorophenyl)-4H-chromen-4-one] | inhibition at 0.1 µM (PI3kγ): 25 to 50%
0 to 25 |  |  | 25 to 50 | 25 to 50 | CC(c1oc2cccc(F)c2c(=O)c1-c1ccc(F)cc1)n1cnc2c(N3CCOCC3)ncnc21 (centres unmarked) [Example 108, 5-fluoro-3-(4-fluorophenyl)-2-(1-(6-morpholino-9H-purin-9-yl)ethyl)-4H-chromen-4-one] | inhibition at 0.1 µM (PI3kγ): 25 to 50%
25 to 50 |  |  | 0 to 25 |  | CC(c1oc2cccc(F)c2c(=O)c1-c1cccc(F)c1)n1cnc2c(N(C)C)ncnc21 (centres unmarked) [Example 110, 2-(1-(6-(dimethylamino)-9H-purin-9-yl)ethyl)-5-fluoro-3-(3-fluorophenyl)-4H-chromen-4-one] | IC50 (PI3kγ): 50 to 100 nM; % inhibition (PI3kγ) 100 nM (PI3kγ): B (B=>50 to 75%); IC50 (PI3kδ): ≤ 50 nM; % inhibition (PI3kδ) 100 nM (PI3kδ; 100 nM (Examples 60-137), 0.1 µM): A (A=>75 to 100%)
 |  |  |  | 50 to 75 | CC(c1oc2cccc(F)c2c(=O)c1-c1cccc(F)c1)n1nc(-c2ccc(N3CCOCC3)c(Cl)c2)c2c(N)ncnc21 (centres unmarked) [Example 113, 2-(1-(4-amino-3-(3-chloro-4-morpholinophenyl)-1H-pyrazolo[3,4-d]pyrimidin-1-yl)ethyl)-5-fluoro-3-(3-fluorophenyl)-4H-chromen-4-one] | % inhibition (PI3kβ) 1 uM (PI3kβ): D (D=0 to 25%); IC50 (PI3kγ): 50 to 100 nM; % inhibition (PI3kγ) 100 nM (PI3kγ): B (B=>50 to 75%); IC50 (PI3kδ): ≤ 50 nM; % inhibition (PI3kα) 1 uM (PI3kα): C (C=>25 to 50%)
0 to 25 |  |  | 25 to 50 | 25 to 50 | Cc1nc2ccc(-c3nn(C(C)c4oc5cccc(F)c5c(=O)c4-c4cccc(F)c4)c4ncnc(N)c34)cc2o1 (centres unmarked) [Example 118, 2-(1-(4-amino-3-(2-methylbenzo[d]oxazol-6-yl)-1H-pyrazolo[3,4-d]pyrimidin-1-yl)ethyl)-5-fluoro-3-(3-fluorophenyl)-4H-chromen-4-one] | inhibition at 0.1 µM (PI3kγ): 25 to 50%
0 to 25 |  |  | 25 to 50 | 25 to 50 | CC(=O)c1ccc(-c2nn(C(C)c3oc4cccc(F)c4c(=O)c3-c3cccc(F)c3)c3ncnc(N)c23)cc1F (centres unmarked) [Example 124, 2-(1-(3-(4-acetyl-3-fluorophenyl)-4-amino-1H-pyrazolo[3,4-d]pyrimidin-1-yl)ethyl)-5-fluoro-3-(3-fluorophenyl)-4H-chromen-4-one] | inhibition at 0.1 µM (PI3kγ): 0 to 25%
50 to 75 |  |  | 25 to 50 | 50 to 75 | CC(c1oc2cccc(F)c2c(=O)c1-c1cccc(F)c1)n1nc(-c2cccc(NS(C)(=O)=O)c2)c2c(N)ncnc21 (centres unmarked) [Example 128, N-(3-(4-amino-1-(1-(5-fluoro-3-(3-fluorophenyl)-4-oxo-4H-chromen-2-yl)ethyl)-1H-pyrazolo[3,4-d]pyrimidin-3-yl)phenyl)methanesulfonamide] | IC50 (PI3kγ): 50 to 100 nM; inhibition at 0.1 µM (PI3kγ): 25 to 50%; IC50 (PI3kδ): 50 to 100 nM

Further lines, the compound ahead of its results:

Compound | inhibition at 1 µM (PI3kβ) [%] | inhibition at 0.3 µM (PI3kγ) [%] | inhibition at 0.3 µM (PI3kδ) [%] | inhibition at 1 µM (PI3kα) [%] | inhibition at 0.1 µM (PI3kδ; 100 nM (Examples 60-137)) [%] | also measured
CC(c1oc2cccc(F)c2c(=O)c1-c1cccc(F)c1)n1cnc2c(N)nc(F)nc21 (centres unmarked) (as salt: potassium) [Example 106, 2-(1-(6-amino-2-fluoro-9H-purin-9-yl)ethyl)-5-fluoro-3-(3-fluorophenyl)-4H-chromen-4-one] |  |  |  |  |  | melting point: 255 to 258 °C
CNc1ncnc2c1ncn2C(C)c1oc2cccc(F)c2c(=O)c1-c1cccc(F)c1 (centres unmarked) (as salt: potassium) [Example 111, 5-fluoro-3-(3-fluorophenyl)-2-(1-(6-(methylamino)-9H-purin-9-yl)ethyl)-4H-chromen-4-one] |  |  |  |  |  | melting point: 207 to 209 °C
CC(c1oc2cccc(F)c2c(=O)c1-c1cccc(F)c1)n1cnc2c(N3CCOCC3)ncnc21 (centres unmarked) (as salt: potassium) [Example 119, 5-fluoro-3-(3-fluorophenyl)-2-(1-(6-morpholino-9H-purin-9-yl)ethyl)-4H-chromen-4-one] |  |  |  |  |  | melting point: 239 to 241 °C
Cc1cc(-c2nn(C(C)c3oc4cccc(F)c4c(=O)c3-c3cccc(F)c3)c3ncnc(N)c23)ccc1OC(C)C (centres unmarked) (as salt: sodium) [Example 50, 2-(1-(4-amino-3-(4-isopropoxy-3-methylphenyl)-1H-pyrazolo[3,4-d]pyrimidin-1-yl)ethyl)-5-fluoro-3-(3-fluorophenyl)-4H-chromen-4-one] |  |  |  |  |  | melting point: 185 to 188 °C
C[C@H](c1oc2cccc(F)c2c(=O)c1-c1cccc(F)c1)n1ncc2c(N)ncnc21 [Example 16b, (−)-2-(1-(4-amino-1H-pyrazolo[3,4-d]pyrimidin-1-yl)ethyl)-5-fluoro-3-(3-fluorophenyl)-4H-chromen-4-one] |  |  |  |  |  | melting point: 198 to 201 °C
CCc1nn(C(C)c2oc3cccc(F)c3c(=O)c2-c2cccc(F)c2)c2ncnc(N)c12 (centres unmarked) [Example 34, 2-(1-(4-amino-3-ethyl-1H-pyrazolo[3,4-d]pyrimidin-1-yl)ethyl)-5-fluoro-3-(3-fluorophenyl)-4H-chromen-4-one] | 25 to 50 | 50 to 75 | 50 to 75 | 0 to 25 |  | 
CC(c1oc2cccc(F)c2c(=O)c1-c1cccc(F)c1)n1nc(-c2cc3ccccc3s2)c2c(N)ncnc21 (centres unmarked) [Example 36, 2-(1-(4-amino-3-(benzo[b]thiophen-2-yl)-1H-pyrazolo[3,4-d]pyrimidin-1-yl)ethyl)-5-fluoro-3-(3-fluorophenyl)-4H-chromen-4-one] | 50 to 75 | 75 to 100 | 25 to 50 | 0 to 25 |  | 
CC(c1oc2cccc(F)c2c(=O)c1-c1cccc(F)c1)n1nc(N2CCOCC2)c2c(N)ncnc21 (centres unmarked) [Example 37, 2-(1-(4-amino-3-morpholino-1H-pyrazolo[3,4-d]pyrimidin-1-yl)ethyl)-5-fluoro-3-(3-fluorophenyl)-4H-chromen-4-one] | 25 to 50 | 50 to 75 | 0 to 25 | 0 to 25 |  | 
CC(c1oc2cccc(F)c2c(=O)c1-c1cccc(F)c1)n1nc(N(C)C)c2c(N)ncnc21 (centres unmarked) [Example 38, 2-(1-(4-amino-3-(dimethylamino)-1H-pyrazolo[3,4-d]pyrimidin-1-yl)ethyl)-5-fluoro-3-(3-fluorophenyl)-4H-chromen-4-one] | 25 to 50 | 0 to 25 | 50 to 75 | 25 to 50 |  | 
CC(c1oc2cccc(F)c2c(=O)c1-c1cccc(F)c1)n1nc(N2CCCCC2)c2c(N)ncnc21 (centres unmarked) [Example 39, 2-(1-(4-amino-3-(piperidin-1-yl)-1H-pyrazolo[3,4-d]pyrimidin-1-yl)ethyl)-5-fluoro-3-(3-fluorophenyl)-4H-chromen-4-one] | 50 to 75 | 0 to 25 | 25 to 50 | 25 to 50 |  | 
CC(C)Oc1ccc(-c2nn(C(C)c3oc4cccc(F)c4c(=O)c3-c3cccc(F)c3)c3ncnc(N)c23)cn1 (centres unmarked) [Example 40, 2-(1-(4-amino-3-(6-isopropoxypyridin-3-yl)-1H-pyrazolo[3,4-d]pyrimidin-1-yl)ethyl)-5-fluoro-3-(3-fluorophenyl)-4H-chromen-4-one] | 50 to 75 | 0 to 25 | 50 to 75 | 25 to 50 |  | 
CSc1nn(C(C)c2oc3cccc(F)c3c(=O)c2-c2cccc(F)c2)c2ncnc(N)c12 (centres unmarked) [Example 41, 2-(1-(4-amino-3-(methylthio)-1H-pyrazolo[3,4-d]pyrimidin-1-yl)ethyl)-5-fluoro-3-(3-fluorophenyl)-4H-chromen-4-one] | 25 to 50 | 50 to 75 | 50 to 75 | 25 to 50 |  | 
CC(c1oc2cccc(F)c2c(=O)c1-c1cccc(F)c1)n1nc(-c2ccc(OC3CN(C(c4ccccc4)c4ccccc4)C3)c(F)c2)c2c(N)ncnc21 (centres unmarked) [Example 44, 2-(1-(4-amino-3-(4-(1-benzhydrylazetidin-3-yloxy)-3-fluorophenyl)-1H-pyrazolo[3,4-d]pyrimidin-1-yl)ethyl)-5-fluoro-3-(3-fluorophenyl)-4H-chromen-4-one] | 0 to 25 | 25 to 50 | 25 to 50 | 0 to 25 |  | 
Cc1cc(-c2nn(C(C)c3oc4cccc(F)c4c(=O)c3-c3cccc(F)c3)c3ncnc(N)c23)ccc1OC(C)C (centres unmarked) [Example 50, 2-(1-(4-amino-3-(4-isopropoxy-3-methylphenyl)-1H-pyrazolo[3,4-d]pyrimidin-1-yl)ethyl)-5-fluoro-3-(3-fluorophenyl)-4H-chromen-4-one] |  | 50 to 75 | 75 to 100 |  |  | % inhibition (PI3kβ) 1 uM (PI3kβ): C (C=>25 to 50%); % inhibition (PI3kα) 1 uM (PI3kα): D (D=0 to 25%)
CCC(Nc1ncnc2[nH]cnc12)c1oc2cccc(F)c2c(=O)c1-c1ccccc1 (centres unmarked) [Example 65, 2-(1-(9H-purin-6-ylamino)propyl)-5-fluoro-3-phenyl-4H-chromen-4-one] | 25 to 50 |  |  | 25 to 50 | 0 to 25 | inhibition at 0.1 µM (PI3kγ): 50 to 75%
Cc1ccccc1-c1c(C(C)Nc2ncnc3[nH]cnc23)oc2cccc(F)c2c1=O (centres unmarked) [Example 138, 2-(1-(9H-purin-6-ylamino)ethyl)-5-fluoro-3-o-tolyl-4H-chromen-4-one] |  |  |  |  |  | melting point: 275 to 277 °C
